Measured values from patent US20240190860A1, “8-CYCLO-SUBSTITUTED QUINAZOLINE DERIVATIVES AS LPA RECEPTOR 2 INHIBITORS” (CHIESI FARMACEUTICI S.p.A., priority 2021, published 2024).

Target: T1, human recombinant LPA2 expressed in CHO cells (Homo sapiens, UniProt Q9HBW0)
T1 construct: expressed in transfected cells; host or cells: CHO cells (CHO-hLPA2 cell line)
Assay: FLIPR calcium mobilization assay, LPA2 antagonism in CHO-hLPA2 cells
Type: cell-based
Settings: CHO-hLPA2 cells, inhibition of LPA EC80 Ca2+ response, 30 min pre-incubation; read-out: LPA2 IC50
Protocol: The effectiveness of compounds of the present invention as LPA2 antagonist can be determined at the human recombinant LPA2 expressed in CHO cells, using a FLIPR assay in 384 well format.
CHO-hLPA2 cell lines are cultured in a humidified incubator at 5% C02 in DMEM/F-12 (1:1) MIXTURE with 2 mM Glutamax, supplemented with 10% of Foetal Bovine Serum, 1 mM Sodium Pyruvate, 11 mM Hepes and 1× Penicillin/Streptomycin. CHO hLPA2 cells are seeded into black walled clear-bottom 384-well plates (#781091, Greiner Bio-One GmbH) at a density of 7,500 cells per well in 50 μl culture media and grown overnight in a 37° C. humidified CO2-incubator. Serial dilutions (1:3 or 1:4, 11 points CRC) of compounds are performed in 100% DMSO at 200× the final concentration. The compounds are diluted 1:50 prior to the experiment with Assay Buffer (20 mM HEPES, 145 mM NaCl, 5 mM KCl, 5.5 mM glucose, 1 mM MgCl2 and 2 mM CaCl2, pH 7.4 containing 0.01% Pluronic F-127) to obtain a solution corresponding to […] the final concentration in the assay (4×, 2% DMSO). The final concentration of DMSO in the assay will be 0.5% in each well. Medium is removed by aspiration and cells are then incubated with 30 μl of a loading solution containing 5 μM of the cytoplasmic Ca2+ indicator Cal-520 AM in Assay Buffer containing 2.5 mM probenecid for 30 min at 37° C. incubator (cell loading). The loaded cell plates are transferred into the FLIPR instrument and calcium responses are monitored during the on-line addition protocols. For testing of compounds, after the cell loading, 10 μl/well of 4× antagonists' solution was added onto the cells. After 30 min pre-incubation (at 37° C.), 10 μl/well of 5× concentrated LPA EC80 was added and Ca2+ mobilization responses was followed during the on-line addition protocol. Intracellular peak fluorescence values subtracted by baseline fluorescence are exported and analysed to determine IC50 values, respectively. The calcium response is expressed as percentage of the maximal inhibition of the EC80 agonist response.
The raw data (peak height expressed as relative fluorescence units) are normalized and transformed into “percent of inhibition”. Curve fitting and pIC50 (−LogIC50) estimations are carried out using a four-parameter logistic model using XLfit Software.

T1 sequence (Q9HBW0 whole entry): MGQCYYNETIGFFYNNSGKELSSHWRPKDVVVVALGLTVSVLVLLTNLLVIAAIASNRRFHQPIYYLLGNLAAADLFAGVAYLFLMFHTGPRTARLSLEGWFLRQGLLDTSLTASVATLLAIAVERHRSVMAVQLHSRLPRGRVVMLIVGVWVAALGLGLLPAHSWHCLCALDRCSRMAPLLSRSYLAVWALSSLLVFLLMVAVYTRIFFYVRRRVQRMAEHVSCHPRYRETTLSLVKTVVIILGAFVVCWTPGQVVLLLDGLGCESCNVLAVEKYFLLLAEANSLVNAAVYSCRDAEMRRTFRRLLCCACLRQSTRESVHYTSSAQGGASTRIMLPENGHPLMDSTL

## COC(=O)Nc1nc(C)c(S(=O)(=O)N2CCN(C[C@H](C)Nc3ncnc4c(-c5cccnc5C)cccc34)CC2)s1 [Example 48, methyl N-[4-methyl-5-({4-[(2S)-2-{[8-(2-methylpyridin-3-yl)quinazolin-4-yl]amino}propyl]piperazin-1-yl}sulfonyl)-1,3-thiazol-2-yl]carbamate]
  IC50: < 10 nM

## COCC(=O)Nc1ncc(S(=O)(=O)N2CCN(C[C@H](C)Nc3ncnc4c(-c5cccnc5)cccc34)CC2)s1 [Example 49, 2-methoxy-N-[5-({4-[(2S)-2-{[8-(pyridin-3-yl)quinazolin-4-yl]amino}propyl]piperazin-1-yl}sulfonyl)-1,3-thiazol-2-yl]acetamide]
  IC50: 10 to 100 nM

## C[C@@H](CN1CCN(S(=O)(=O)c2ccc3[nH]c(=O)[nH]c(=O)c3c2)CC1)Nc1ncnc2c(-c3cccnc3)cccc12 [Example 51, 6-({4-[(2S)-2-{[8-(pyridin-3-yl)quinazolin-4-yl]amino}propyl]piperazin-1-yl}sulfonyl)-1,2,3,4-tetrahydroquinazoline-2,4-dione]
  IC50: < 10 nM

## C[C@@H](CN1CCN(S(=O)(=O)c2ccc(F)c(F)c2)CC1)Nc1ncnc2c(-c3cccnc3)cccc12 [Example 52, N-[(2S)-1-[4-(3,4-difluorobenzenesulfonyl)piperazin-1-yl]propan-2-yl]-8-(pyridin-3-yl)quinazolin-4-amine]
  IC50: 10 to 100 nM

## CC(=O)Nc1cc(F)c(S(=O)(=O)N2CCN(C[C@H](C)Nc3ncnc4c(-c5cccc(CN(C)C)c5)cccc34)CC2)cc1C [Example 53, N-[4-({4-[(2S)-2-[(8-{3-[(dimethylamino)methyl]phenyl}quinazolin-4-yl)amino]propyl]piperazin-1-yl}sulfonyl)-5-fluoro-2-methylphenyl]acetamide]
  IC50: < 10 nM

## CC(=O)N1CCc2cc(S(=O)(=O)N3CCN(C[C@H](C)Nc4ncnc5c(-c6cccc(CN(C)C)c6)cccc45)CC3)ccc21 [Example 54, 1-[5-({4-[(2S)-2-[(8-{3-[(dimethylamino)methyl]phenyl}quinazolin-4-yl)amino]propyl]piperazin-1-yl}sulfonyl)-2,3-dihydro-1H-indol-1-yl]ethan-1-one]
  IC50: < 10 nM

## COC(=O)Nc1nc(C)c(S(=O)(=O)N2CCN(C[C@H](C)Nc3ncnc4c(-c5cncc(CN(C)C)c5)cccc34)CC2)s1 [Example 55, methyl N-[5-({4-[(2S)-2-[(8-{5-[(dimethylamino)methyl]pyridin-3-yl}quinazolin-4-yl)amino]propyl]piperazin-1-yl}sulfonyl)-4-methyl-1,3-thiazol-2-yl]carbamate]
  IC50: < 10 nM

## COC(=O)Nc1nc(C)c(S(=O)(=O)N2CCN(C[C@H](C)Nc3ncnc4c(-c5ccc(N)nc5)cccc34)CC2)s1 [Example 56, methyl N-[5-({4-[(2S)-2-{[8-(6-aminopyridin-3-yl)quinazolin-4-yl]amino}propyl]piperazin-1-yl}sulfonyl)-4-methyl-1,3-thiazol-2-yl]carbamate]
  IC50: 10 to 100 nM

## COC(=O)Nc1nc(C)c(S(=O)(=O)N2CCN(C[C@H](C)Nc3ncnc4c(-c5ccc6c(c5)CNC6)cccc34)CC2)s1 [Example 57, methyl N-[5-({4-[(2S)-2-{[8-(2,3-dihydro-1H-isoindol-5-yl)quinazolin-4-yl]amino}propyl]piperazin-1-yl}sulfonyl)-4-methyl-1,3-thiazol-2-yl]carbamate]
  IC50: < 10 nM

## COC(=O)Nc1nc(C)c(S(=O)(=O)N2CCN(C[C@H](C)Nc3ncnc4c(-c5cnn(CCN(C)C)c5)cccc34)CC2)s1 [Example 58, methyl N-[5-({4-[(2S)-2-[(8-{1-[2-(dimethylamino)ethyl]-1H-pyrazol-4-yl}quinazolin-4-yl)amino]propyl]piperazin-1-yl}sulfonyl)-4-methyl-1,3-thiazol-2-yl]carbamate]
  IC50: < 10 nM

## C[C@@H](CN1CCN(S(=O)(=O)c2ccc3[nH]c(=O)cnc3c2)CC1)Nc1ncnc2c(-c3cccnc3)cccc12 [Example 59, 6-({4-[(2S)-2-{[8-(pyridin-3-yl)quinazolin-4-yl]amino}propyl]piperazin-1-yl}sulfonyl)-1,2-dihydroquinoxalin-2-one]
  IC50: 10 to 100 nM

## COC(=O)Nc1nc(C)c(S(=O)(=O)N2CCN(C[C@H](C)Nc3ncnc4c(-c5ccc(CN(C)C)nc5)cccc34)CC2)s1 [Example 60, methyl N-[5-({4-[(2S)-2-[(8-{6-[(dimethylamino)methyl]pyridin-3-yl}quinazolin-4-yl)amino]propyl]piperazin-1-yl}sulfonyl)-4-methyl-1,3-thiazol-2-yl]carbamate]
  IC50: < 10 nM

## COC(=O)Nc1nc(C)c(S(=O)(=O)N2CCN(C[C@H](C)Nc3ncnc4c(-c5cncc(N)c5)cccc34)CC2)s1 [Example 61, methyl N-[5-({4-[(2S)-2-{[8-(5-aminopyridin-3-yl)quinazolin-4-yl]amino}propyl]piperazin-1-yl}sulfonyl)-4-methyl-1,3-thiazol-2-yl]carbamate]
  IC50: < 10 nM

## COC(=O)Nc1nc(C)c(S(=O)(=O)N2CCN(C[C@H](C)Nc3ncnc4c(-c5cn(C)nc5C)cccc34)CC2)s1 [Example 63, methyl N-[5-({4-[(2S)-2-{[8-(1,3-dimethyl-1H-pyrazol-4-yl)quinazolin-4-yl]amino}propyl]piperazin-1-yl}sulfonyl)-4-methyl-1,3-thiazol-2-yl]carbamate]
  IC50: < 10 nM

## COC(=O)Nc1nc(C)c(S(=O)(=O)N2CCN(C[C@H](C)Nc3ncnc4c(-c5cnn(C)c5C)cccc34)CC2)s1 [Example 64, methyl N-[5-({4-[(2S)-2-{[8-(1,5-dimethyl-1H-pyrazol-4-yl)quinazolin-4-yl]amino}propyl]piperazin-1-yl}sulfonyl)-4-methyl-1,3-thiazol-2-yl]carbamate]
  IC50: < 10 nM

## COC(=O)Nc1nc(C)c(S(=O)(=O)N2CCN(C[C@H](C)Nc3ncnc4c(-c5cnn(C)c5)cccc34)CC2)s1 [Example 65, methyl N-[4-methyl-5-({4-[(2S)-2-{[8-(1-methyl-1H-pyrazol-4-yl)quinazolin-4-yl]amino}propyl]piperazin-1-yl}sulfonyl)-1,3-thiazol-2-yl]carbamate]
  IC50: < 10 nM

## C[C@@H](CN1CCN(S(=O)(=O)c2ccc3c(c2)CC(=O)N3)CC1)Nc1ncnc2c(-c3cccnc3)cccc12 [Example 66, 5-({4-[(2S)-2-{[8-(pyridin-3-yl)quinazolin-4-yl]amino}propyl]piperazin-1-yl}sulfonyl)-2,3-dihydro-1H-indol-2-one]
  IC50: 10 to 100 nM

## COC(=O)Nc1nc(C)c(S(=O)(=O)N2CCN(C[C@H](C)Nc3ncnc4c(-c5cncc(N6CCN(C)CC6)c5)cccc34)CC2)s1 [Example 67, methyl N-[4-methyl-5-({4-[(2S)-2-({8-[5-(4-methylpiperazin-1-yl)pyridin-3-yl]quinazolin-4-yl}amino)propyl]piperazin-1-yl}sulfonyl)-1,3-thiazol-2-yl]carbamate]
  IC50: < 10 nM

## CC(=O)N1CCc2cc(S(=O)(=O)N3CCN(C[C@H](C)Nc4ncnc5c(-c6cn(C)nc6C(F)(F)F)cccc45)CC3)ccc21 [Example 68, 1-[5-({4-[(2S)-2-({8-[1-methyl-3-(trifluoromethyl)-1H-pyrazol-4-yl]quinazolin-4-yl}amino)propyl]piperazin-1-yl}sulfonyl)-2,3-dihydro-1H-indol-1-yl]ethan-1-one]
  IC50: < 10 nM

## CC(=O)N1CCc2cc(S(=O)(=O)N3CCN(C[C@H](C)Nc4ncnc5c(-c6ccc(C)nc6)cccc45)CC3)ccc21 [Example 69, 1-[5-({4-[(2S)-2-{[8-(6-methylpyridin-3-yl)quinazolin-4-yl]amino}propyl]piperazin-1-yl}sulfonyl)-2,3-dihydro-1H-indol-1-yl}ethan-1-one]
  IC50: < 10 nM

## COC(=O)Nc1nc(C)c(S(=O)(=O)N2CCN(C[C@H](C)Nc3ncnc4c(-c5cccc(C)n5)cccc34)CC2)s1 [Example 71, methyl N-[4-methyl-5-({4-[(2S)-2-{[8-(6-methylpyridin-2-yl)quinazolin-4-yl]amino}propyl]piperazin-1-yl}sulfonyl)-1,3-thiazol-2-yl]carbamate]
  IC50: < 10 nM

## COC(=O)Nc1nc(C)c(S(=O)(=O)N2CCN(C[C@H](C)Nc3ncnc4c(-c5cncc(NC=O)c5)cccc34)CC2)s1 [Example 72, methyl N-[5-({4-[(2S)-2-{[8-(5-formamidopyridin-3-yl)quinazolin-4-yl]amino}propyl]piperazin-1-yl}sulfonyl)-4-methyl-1,3-thiazol-2-yl]carbamate]
  IC50: < 10 nM
